biological target: T1, hCRTH2 receptor (Homo sapiens, UniProt Q9Y5Y4); assay: Radioligand displacement assay (3H-PGD2) on hCRTH2 receptor membranes; type: binding; details: antagonistic activity, 3H-PGD2 radioligand displacement, HEK293-hCRTH2 membranes
T1 construct: expressed in transfected cells; host or cells: HEK293
T1 sequence (Q9Y5Y4 1-395): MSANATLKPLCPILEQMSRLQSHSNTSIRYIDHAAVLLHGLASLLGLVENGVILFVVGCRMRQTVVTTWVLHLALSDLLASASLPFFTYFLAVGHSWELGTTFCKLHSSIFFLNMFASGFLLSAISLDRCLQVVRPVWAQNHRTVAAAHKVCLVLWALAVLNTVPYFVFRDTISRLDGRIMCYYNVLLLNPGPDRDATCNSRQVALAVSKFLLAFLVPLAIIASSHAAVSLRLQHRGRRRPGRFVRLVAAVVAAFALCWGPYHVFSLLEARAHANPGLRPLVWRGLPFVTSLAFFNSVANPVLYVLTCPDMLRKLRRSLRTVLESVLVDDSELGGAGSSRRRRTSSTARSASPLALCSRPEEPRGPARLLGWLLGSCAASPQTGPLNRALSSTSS
Experimental: First, recombinant HEK293-hCRTH2 cells were detached from culture plates into 5 ml buffer A/plate (Buffer A: 5 mM Tris, 1 mM MgCl2-6H2O pH=7.4) using a rubber policeman. Cells were then transferred into centrifugation tubes and centrifuged for 5 min at 400 g. The cell pellet was resuspended in the same buffer and tubes were frozen at −80° C. Cells were thawed and membrane fragments were generated by homogenization using a polytron homogenizer (30 seconds). The membrane fragments were then centrifuged at 3000 g for 20 minutes and resuspended in buffer C (Buffer C: 75 mM Tris, 25 mM MgCl2, 250 mM Saccharose pH 7.4). Aliquots of membrane fragments were stored at −20° C.
Binding assay was performed in a final assay volume of 250 μl. First, 25 μl of test compound, previously diluted in Binding-Buffer (Binding-Buffer: 50 mM Tris-Base, 100 mM NaCl, 1 mM EDTA, 0.1% BSA (protease free), 0.01% NaN3, 10 mM MnCl2, pH 7.0) was placed into each well. After addition of 75 μl Binding-Buffer, 50 μl of the radioligand ^3H-PGD2 (at 2.5 nM (220.000 dpm/well) from ANAWA ART0662) was added to each well. Binding assay was started by addition of 100 μl CRTH2 membrane fragments, reaching a final concentration of 20 μg/well. For non-specific binding, PGD2 was added to the reaction mixture to […] final concentration.
This assay mix was incubated for 90 minutes at room temperature and then filtered through a GF/C filter 96-well plate which was pre-soaked for 3 hours in 0.5% polyethyleneimine (PEI). The filter-wells were washed three times with ice cold Binding-Buffer. Then, 40 μl of Microscint-40 (Packard) was added to each well and the retained radioactivity quantified in a Topcount (Packard).

IC50 [nM] | Structure (SMILES)
3.27 | O=C(O)COc1ccc(Cl)cc1[C@@H]1c2ccc(F)c(F)c2CCN1C(=O)OCc1cccc(F)c1F [Example 351, (S)-1-(2-Carboxymethoxy-5-chloro-phenyl)-5,6-difluoro-3,4-dihydro-1H-isoquinoline-2-carboxylic acid 2,3-difluoro-benzyl ester]
0.4 | O=C(O)COc1ccc(Cl)cc1[C@@H]1c2ccc(F)cc2CCN1C(=O)OCc1noc2ccccc12 [Example 348, (S)-1-(2-Carboxymethoxy-5-chloro-phenyl)-6-fluoro-3,4-dihydro-1H-isoquinoline-2-carboxylic acid benzo[d]isoxazol-3-ylmethyl ester]
11.5 | CCn1nc(C)cc1CCOC(=O)N1CCc2cc(F)ccc2[C@H]1c1cc(Cl)ccc1OCC(=O)O [Example 339, (S)-1-(2-Carboxymethoxy-5-chloro-phenyl)-6-fluoro-3,4-dihydro-1H-isoquinoline-2-carboxylic acid 2-(2-ethyl-5-methyl-2H-pyrazol-3-yl)-ethyl ester]
400 | O=C(O)COc1ccc(Cl)cc1C1c2ccccc2CCN1C(=O)COc1cnccc1Cl (racemic) [Example 487]
28.4 | O=C(O)COc1ccc(Cl)cc1[C@@H]1c2ccc(F)cc2CCN1C(=O)CCn1ncc2cc(F)ccc21 [Example 395, (4-Chloro-2-{(S)-6-fluoro-2-[3-(5-fluoro-indazol-1-yl)-propionyl]-1,2,3,4-tetrahydro-isoquinolin-1-yl}-phenoxy)-acetic acid]
5.9 | Cc1nc(COC(=O)N2CCc3cc(F)ccc3[C@H]2c2cc(Cl)ccc2OCC(=O)O)cs1 [Example 329, (S)-1-(2-Carboxymethoxy-5-chloro-phenyl)-6-fluoro-3,4-dihydro-1H-isoquinoline-2-carboxylic acid 2-methyl-thiazol-4-ylmethyl ester]
3.61 | Cn1nccc1COC(=O)N1CCc2cc(F)ccc2[C@H]1c1cc(Cl)ccc1OCC(=O)O [Example 337, (S)-1-(2-Carboxymethoxy-5-chloro-phenyl)-6-fluoro-3,4-dihydro-1H-isoquinoline-2-carboxylic acid 2-methyl-2H-pyrazol-3-ylmethyl ester]
87.6 | O=C(O)COc1ccc(Cl)cc1C1c2ccccc2CCN1C(=O)COc1cccnc1Cl (racemic) [Example 471]

Further lines, the compound ahead of its results:

Structure (SMILES) | IC50 [nM]
O=C(O)COc1ccc(Cl)cc1C1c2ccccc2CCN1C(=O)CCN1CCCc2ccccc21 (racemic) [Example 449] | 26.1
Cc1nn(CCC(=O)N2Cc3ccccc3C2c2cc(Cl)ccc2OCC(=O)O)c2cccc(F)c12 (single isomer, unassigned) [Example 528, (4-Chloro-2-{2-[3-(4-fluoro-3-methyl-indazol-1-yl)-propionyl]-2,3-dihydro-1H-isoindol-1-yl}-phenoxy)-acetic acid] | 33.2
O=C(O)COc1ccc(Cl)cc1C1c2ccccc2CN1C(=O)CCOc1ccc(F)cc1 (racemic) [Example 520] | 130
Cc1cn(CCC(=O)N2Cc3ccccc3C2c2cc(Cl)ccc2OCC(=O)O)c2ccccc12 (racemic) [Example 519] | 37.4

same assay, conditions: antagonistic activity; 3H-PGD2 displacement on HEK293-hCRTH2 membrane fragments

IC50 [nM] | Structure (SMILES)
21.2 | COCCOC(=O)N1CCc2ccccc2C1c1cc(Cl)ccc1OCC(=O)O (racemic) [Example 267]
4.95 | Cc1cc(C)n(COC(=O)N2CCc3ccccc3C2c2cc(Cl)ccc2OCC(=O)O)n1 (racemic) [Example 269]
10.1 | O=C(O)COc1ccc(Cl)cc1C1c2ccc(F)c(F)c2CCN1C(=O)OCc1ccccc1 (racemic) [Example 15, (±)-1-(2-Carboxymethoxy-5-chloro-phenyl)-5,6-difluoro-3,4-dihydro-1H-isoquinoline-2-carboxylic acid benzyl ester]
81.2 | O=C(O)COc1ccc(F)cc1C1c2cc(Br)ccc2CCN1C(=O)OCc1ccccc1 (racemic) [Example 5, (±)-7-Bromo-1-(2-carboxymethoxy-5-fluoro-phenyl)-3,4-dihydro-1H-isoquinoline-2-carboxylic acid benzyl ester]
687 | O=C(O)COc1ccc(F)cc1C1c2ccccc2CCN1C(=O)Oc1cccc(Cl)c1 (racemic) [Example 178, (±)-1-(2-Carboxymethoxy-5-fluoro-phenyl)-3,4-dihydro-1H-isoquinoline-2-carboxylic acid 3-chloro-phenyl ester]

The remaining lines, values behind:

Structure (SMILES) | IC50 [nM]
O=C(O)COc1ccc(Cl)cc1C1c2cccc(F)c2CCN1C(=O)C#Cc1ccccc1 (racemic) [Example 122, (±)-{4-Chloro-2-[5-fluoro-2-(3-phenyl-propynoyl)-1,2,3,4-tetrahydro-isoquinolin-1-yl]-phenoxy}-acetic acid] | 196
O=C(O)COc1ccc(Cl)cc1C1c2ccccc2CCN1C(=O)[C@@H]1C[C@H]1c1ccccc1F (mixture of isomers) [Example 160] | 16.4
O=C(O)COc1ccc(Cl)cc1C1c2ccccc2CCN1C(=O)CCOc1cccc(Cl)c1 (racemic) [Example 95, (±)-(4-Chloro-2-{2-[3-(3-chloro-phenoxy)-propionyl]-1,2,3,4-tetrahydro-isoquinolin-1-yl}-phenoxy)-acetic acid] | 27.5
O=C(O)COc1ccc(F)cc1C1c2ccccc2CCN1C(=O)CCCc1ccccc1 (racemic) [Example 127, (±)-{4-Fluoro-2-[2-(4-phenyl-butyryl)-1,2,3,4-tetrahydro-isoquinolin-1-yl]-phenoxy}-acetic acid] | 29
C[C@@H](Oc1ccc(F)cc1[C@@H]1c2ccccc2CCN1C(=O)OCc1ccccc1)C(=O)O [Example 27, (S)-1-[2-((R)-1-Carboxy-ethoxy)-5-fluoro-phenyl]-3,4-dihydro-1H-isoquinoline-2-carboxylic acid benzyl ester] | 12.1
COc1ccccc1CNC(=O)N1CCc2ccccc2C1c1cc(Cl)ccc1OCC(=O)O (racemic) [Example 202] | 7.29
O=C(O)COc1ccc(Cl)cc1C1c2ccccc2CCN1C(=O)[C@@H]1C[C@H]1c1ccccc1Cl (relative stereo) [Example 82, (4-Chloro-2-{2-[trans-2-(2-chloro-phenyl)-cyclopropanecarbonyl]-1,2,3,4-tetrahydro-isoquinolin-1-yl}-phenoxy)-acetic acid] | 4.8
Cc1ccc(CCCC(=O)N2CCc3ccccc3C2c2cc(Cl)ccc2OCC(=O)O)cc1 (racemic) [Example 97, (±)-{4-Chloro-2-[2-(4-p-tolyl-butyryl)-1,2,3,4-tetrahydro-isoquinolin-1-yl]-phenoxy}-acetic acid] | 9.7
N#Cc1ccc(OCC(=O)O)c(C2c3ccccc3CCN2C(=O)[C@@H]2C[C@H]2c2ccccc2)c1 (mixture of isomers) [Example 218, (±)-{4-Cyano-2-[2-(trans-2-phenyl-cyclopropanecarbonyl)-1,2,3,4-tetrahydro-isoquinolin-1-yl]-phenoxy}-acetic acid] | 13.4
Cc1ccccc1/C=C/C(=O)N1CCc2ccccc2C1c1cc(F)ccc1OCC(=O)O (racemic) [Example 142, (±)-{4-Fluoro-2-[2-((E)-3-o-tolyl-acryloyl)-1,2,3,4-tetrahydro-isoquinolin-1-yl]-phenoxy}-acetic acid] | 349
CS(=O)(=O)c1cccc2c1CCN(C(=O)OCc1ccccc1)C2c1cc(F)ccc1OCC(=O)O (racemic) [Example 185] | 78.7
O=C(O)COc1ccc(Cl)cc1C1c2ccccc2CCN1C(=O)CC1CC1 (racemic) [Example 68, (±)-{4-Chloro-2-[2-(2-cyclopropyl-acetyl)-1,2,3,4-tetrahydro-isoquinolin-1-yl]-phenoxy}-acetic acid] | 508
CS(=O)(=O)c1ccc(CCC(=O)N2CCc3ccccc3C2c2cc(F)ccc2OCC(=O)O)cc1 (racemic) [Example 145, (±)-(4-Fluoro-2-{2-[3-(4-methanesulfonyl-phenyl)-propionyl]-1,2,3,4-tetrahydro-isoquinolin-1-yl}-phenoxy)-acetic acid] | 983
O=C(O)COc1ccc(F)cc1C1c2cccc(S(=O)(=O)c3ccccc3)c2CCN1C(=O)OCc1ccccc1 (racemic) [Example 187] | 241

same assay, conditions: radioligand displacement (3H-PGD2), hCRTH2 receptor membranes; antagonistic activity

IC50 [nM] | Structure (SMILES)
325 | O=C(OCc1ccccc1)N1CCc2ccccc2C1c1cc(Cl)ccc1OCc1noc(=O)[nH]1 (racemic) [Example 572, (±)-1-[5-Chloro-2-(5-oxo-4,5-dihydro-[1,2,4]oxadiazol-3-ylmethoxy)-phenyl]-3,4-dihydro-1H-isoquinoline-2-carboxylic acid benzyl ester]

Source: US8575158B2, “1-phenyl-substituted heterocyclyl derivatives and their use as prostaglandin D2 receptor modulators” (Actelion Pharmaceuticals Ltd., priority 2010, dated 2013)
